# Test results from patent publication US11497212B2, “Substituted thiophenyl uracils, salts thereof and the use thereof as herbicidal agents” (Syngenta Crop Protection AG, priority 2017, dated 2022).
# Tested on: Glycine max
# Experiment: Crop compatibility pre-emergence (greenhouse pot trial)
# Format: in vivo
# Conditions: application rate 320 g/ha, effect vs untreated controls
# Procedure, shortened: (§1)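 Seeds sown in pots and covered with soil; compounds formulated as WP or EC applied pre-emergence to the soil surface as aqueous suspension/emulsion with 0.5% additive at 600 L/ha water. Plants kept in greenhouse; crop damage scored visually after about 3 weeks as % versus untreated controls (0% = like control, 100% = dead).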
row,Glycine max (Efficacy in %) [%],Compound
1,10,Cn1c(C(F)(F)F)cc(=O)n(-c2cc(SCC(C)(C)C(=O)OCC3CCOC3)c(Cl)cc2F)c1=O (stereo not shown) [I.48-72]

# Tested on: Zea mays
# Experiment: as above
# Format: in vivo
# Conditions: application rate 320 g/ha, effect vs untreated controls
# Procedure, shortened: as §1
row,Zea mays (Efficacy in %) [%],Compound
1,0,Cn1c(C(F)(F)F)cc(=O)n(-c2cc(SCC(C)(C)C(=O)OCC3CCOC3)c(Cl)cc2F)c1=O (stereo not shown) [I.48-72]

# Tested on: Amaranthus retroflexus
# Experiment: Herbicidal action pre-emergence (greenhouse pot trial)
# Format: in vivo
# Conditions: application rate 320 g/ha, scored after about 3 weeks
# Procedure, shortened: (§2)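 Application rates of 320 g/ha or lower were used, with compounds delivered onto covering soil before weed emergence. After roughly three weeks in the greenhouse, damage was judged by eye as a percentage versus untreated plants.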
row,Compound,Amaranthus retroflexus (Efficacy in %) [%]
1,Cn1c(C(F)(F)F)cc(=O)n(-c2cc(SCC(C)(C)C(=O)OCC3CCOC3)c(Cl)cc2F)c1=O (stereo not shown) [I.48-72],100

# Tested on: Setaria viridis
# Experiment: as above
# Format: in vivo
# Conditions: application rate 320 g/ha, scored after about 3 weeks
# Procedure, shortened: as §2
row,Compound,Setaria viridis (Efficacy in %) [%]
1,Cn1c(C(F)(F)F)cc(=O)n(-c2cc(SCC(C)(C)C(=O)OCC3CCOC3)c(Cl)cc2F)c1=O (stereo not shown) [I.48-72],100

# Tested on: Veronica persica
# Experiment: as above
# Format: in vivo
# Conditions: application rate 320 g/ha
# Procedure, shortened: as §2
row,Compound,Veronica persica (Efficacy in %) [%]
1,Cn1c(C(F)(F)F)cc(=O)n(-c2cc(SCC(C)(C)C(=O)OCC3CCOC3)c(Cl)cc2F)c1=O (stereo not shown) [I.48-72],100

# Tested on: Avena fatua
# Experiment: as above
# Format: in vivo
# Conditions: application rate 320 g/ha
# Procedure, shortened: as §2
row,Compound,Avena fatua (Efficacy in %) [%]
1,Cn1c(C(F)(F)F)cc(=O)n(-c2cc(SCC(C)(C)C(=O)OCC3CCOC3)c(Cl)cc2F)c1=O (stereo not shown) [I.48-72],80

# Tested on: Abutilon theophrasti
# Experiment: as above
# Format: in vivo
# Conditions: application rate 320 g/ha, scored after about 3 weeks
# Procedure, shortened: as §2
row,Compound,Abutilon theophrasti (Efficacy in %) [%]
1,Cn1c(C(F)(F)F)cc(=O)n(-c2cc(SCC(C)(C)C(=O)OCC3CCOC3)c(Cl)cc2F)c1=O (stereo not shown) [I.48-72],100

# Tested on: Matricaria inodora
# Experiment: as above
# Format: in vivo
# Conditions: application rate 320 g/ha, scored after about 3 weeks
# Procedure, shortened: as §2
row,Compound,Matricaria inodora (Efficacy in %) [%]
1,Cn1c(C(F)(F)F)cc(=O)n(-c2cc(SCC(C)(C)C(=O)OCC3CCOC3)c(Cl)cc2F)c1=O (stereo not shown) [I.48-72],100

# Tested on: Echinochloa crus-galli
# Experiment: as above
# Format: in vivo
# Conditions: application rate 320 g/ha, scored after about 3 weeks
# Procedure, shortened: as §2
row,Compound,Echinochloa crus-galli (Efficacy in %) [%]
1,Cn1c(C(F)(F)F)cc(=O)n(-c2cc(SCC(C)(C)C(=O)OCC3CCOC3)c(Cl)cc2F)c1=O (stereo not shown) [I.48-72],100

# Tested on: Viola tricolor
# Experiment: as above
# Format: in vivo
# Conditions: application rate 320 g/ha, scored after about 3 weeks
# Procedure, shortened: as §2
row,Compound,Viola tricolor (Efficacy in %) [%]
1,Cn1c(C(F)(F)F)cc(=O)n(-c2cc(SCC(C)(C)C(=O)OCC3CCOC3)c(Cl)cc2F)c1=O (stereo not shown) [I.48-72],100

# Tested on: Alopecurus myosuroides
# Experiment: as above
# Format: in vivo
# Conditions: application rate 320 g/ha, scored after about 3 weeks
# Procedure, shortened: as §2
row,Compound,Alopecurus myosuroides (Efficacy in %) [%]
1,Cn1c(C(F)(F)F)cc(=O)n(-c2cc(SCC(C)(C)C(=O)OCC3CCOC3)c(Cl)cc2F)c1=O (stereo not shown) [I.48-72],90

# Tested on: Lolium rigidum
# Experiment: as above
# Format: in vivo
# Conditions: application rate 320 g/ha
# Procedure, shortened: as §2
row,Compound,Lolium rigidum (Efficacy in %) [%]
1,Cn1c(C(F)(F)F)cc(=O)n(-c2cc(SCC(C)(C)C(=O)OCC3CCOC3)c(Cl)cc2F)c1=O (stereo not shown) [I.48-72],80

# Tested on: Digitaria sanguinalis
# Experiment: as above
# Format: in vivo
# Conditions: application rate 80 g/ha
# Procedure, shortened: as §2
row,Compound,Digitaria sanguinalis (Efficacy in %) [%]
1,Cn1c(C(F)(F)F)cc(=O)n(-c2cc(SCC(C)(C)C(=O)OCC3CCOC3)c(Cl)cc2F)c1=O (stereo not shown) [I.48-72],100

# Tested on: Stellaria media
# Experiment: as above
# Format: in vivo
# Conditions: application rate 320 g/ha, scored after about 3 weeks
# Procedure, shortened: as §2
row,Compound,Stellaria media (Efficacy in %) [%]
1,Cn1c(C(F)(F)F)cc(=O)n(-c2cc(SCC(C)(C)C(=O)OCC3CCOC3)c(Cl)cc2F)c1=O (stereo not shown) [I.48-72],100

# Tested on: Pharbitis purpurea
# Experiment: as above
# Format: in vivo
# Conditions: application rate 320 g/ha
# Procedure, shortened: as §2
row,Compound,Pharbitis purpurea (Efficacy in %) [%]
1,Cn1c(C(F)(F)F)cc(=O)n(-c2cc(SCC(C)(C)C(=O)OCC3CCOC3)c(Cl)cc2F)c1=O (stereo not shown) [I.48-72],100

# Tested on: Triticum aestivum
# Experiment: Crop compatibility post-emergence (greenhouse pot trial)
# Format: in vivo
# Conditions: application rate 20 g/ha
# Procedure, shortened: (§3)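 Greenhouse pot trial: sandy loam, sown seeds, treatment at one-leaf stage 2–3 wk after sowing. Spray: aqueous WP/EC preparation, 0.5% additive, 600 L/ha. Readout: visual % effect after ~3 wk relative to untreated plants.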
row,Triticum aestivum (Efficacy in %) [%],Compound
1,20,Cn1c(C(F)(F)F)cc(=O)n(-c2cc(SCC(C)(C)C(=O)OCC3CCOC3)c(Cl)cc2F)c1=O (stereo not shown) [I.48-72]

# Tested on: Oryza sativa
# Experiment: as above
# Format: in vivo
# Conditions: application rate 5 g/ha
# Procedure, shortened: as §3
row,Oryza sativa (Efficacy in %) [%],Compound
1,0,Cn1c(C(F)(F)F)cc(=O)n(-c2cc(SCC(C)(C)C(=O)OCC3CCOC3)c(Cl)cc2F)c1=O (stereo not shown) [I.48-72]

# Same assay, conditions: application rate 20 g/ha
row,Oryza sativa (Efficacy in %) [%],Compound
1,10,Cn1c(C(F)(F)F)cc(=O)n(-c2cc(SCC(C)(C)C(=O)OCC3CCOC3)c(Cl)cc2F)c1=O (stereo not shown) [I.48-72]

# Tested on: Amaranthus retroflexus
# Experiment: Herbicidal action post-emergence (greenhouse pot trial)
# Format: in vivo
# Conditions: application rate 80 g/ha, scored visually after about 3 weeks vs untreated controls
# Procedure, shortened: (§4)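 Sowing in sandy loam, then 2–3 weeks of controlled greenhouse growth. Next, one-leaf-stage plants received a foliar spray of the WP- or EC-formulated compound with 0.5% additive (600 L/ha water, application rate of 80 g/ha or below). Finally, after about 3 weeks under optimal conditions, effect was judged by eye against controls.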
row,Compound,Amaranthus retroflexus (Efficacy in %) [%]
1,Cn1c(C(F)(F)F)cc(=O)n(-c2cc(SCC(C)(C)C(=O)OCC3CCOC3)c(Cl)cc2F)c1=O (stereo not shown) [I.48-72],100

# Tested on: Setaria viridis
# Experiment: as above
# Format: in vivo
# Conditions: application rate 80 g/ha, scored visually after about 3 weeks vs untreated controls
# Procedure, shortened: as §4
row,Compound,Setaria viridis (Efficacy in %) [%]
1,Cn1c(C(F)(F)F)cc(=O)n(-c2cc(SCC(C)(C)C(=O)OCC3CCOC3)c(Cl)cc2F)c1=O (stereo not shown) [I.48-72],100

# Tested on: Veronica persica
# Experiment: as above
# Format: in vivo
# Conditions: application rate 80 g/ha
# Procedure, shortened: as §4
row,Compound,Veronica persica (Efficacy in %) [%]
1,Cn1c(C(F)(F)F)cc(=O)n(-c2cc(SCC(C)(C)C(=O)OCC3CCOC3)c(Cl)cc2F)c1=O (stereo not shown) [I.48-72],100

# Tested on: Abutilon theophrasti
# Experiment: as above
# Format: in vivo
# Conditions: application rate 80 g/ha, scored visually after about 3 weeks vs untreated controls
# Procedure, shortened: as §4
row,Compound,Abutilon theophrasti (Efficacy in %) [%]
1,Cn1c(C(F)(F)F)cc(=O)n(-c2cc(SCC(C)(C)C(=O)OCC3CCOC3)c(Cl)cc2F)c1=O (stereo not shown) [I.48-72],100

# Tested on: Polygonum convolvulus
# Experiment: as above
# Format: in vivo
# Conditions: application rate 80 g/ha, scored visually after about 3 weeks vs untreated controls
# Procedure, shortened: as §4
row,Compound,Polygonum convolvulus (Efficacy in %) [%]
1,Cn1c(C(F)(F)F)cc(=O)n(-c2cc(SCC(C)(C)C(=O)OCC3CCOC3)c(Cl)cc2F)c1=O (stereo not shown) [I.48-72],100

# Tested on: Matricaria inodora
# Experiment: as above
# Format: in vivo
# Conditions: application rate 80 g/ha, scored visually after about 3 weeks vs untreated controls
# Procedure, shortened: as §4
row,Compound,Matricaria inodora (Efficacy in %) [%]
1,Cn1c(C(F)(F)F)cc(=O)n(-c2cc(SCC(C)(C)C(=O)OCC3CCOC3)c(Cl)cc2F)c1=O (stereo not shown) [I.48-72],100

# Tested on: Echinochloa crus-galli
# Experiment: as above
# Format: in vivo
# Conditions: application rate 80 g/ha, scored visually after about 3 weeks vs untreated controls
# Procedure, shortened: as §4
row,Compound,Echinochloa crus-galli (Efficacy in %) [%]
1,Cn1c(C(F)(F)F)cc(=O)n(-c2cc(SCC(C)(C)C(=O)OCC3CCOC3)c(Cl)cc2F)c1=O (stereo not shown) [I.48-72],100

# Tested on: Viola tricolor
# Experiment: as above
# Format: in vivo
# Conditions: application rate 80 g/ha
# Procedure, shortened: as §4
row,Compound,Viola tricolor (Efficacy in %) [%]
1,Cn1c(C(F)(F)F)cc(=O)n(-c2cc(SCC(C)(C)C(=O)OCC3CCOC3)c(Cl)cc2F)c1=O (stereo not shown) [I.48-72],100

# Tested on: Alopecurus myosuroides
# Experiment: as above
# Format: in vivo
# Conditions: application rate 80 g/ha, scored visually after about 3 weeks vs untreated controls
# Procedure, shortened: as §4
row,Compound,Alopecurus myosuroides (Efficacy in %) [%]
1,Cn1c(C(F)(F)F)cc(=O)n(-c2cc(SCC(C)(C)C(=O)OCC3CCOC3)c(Cl)cc2F)c1=O (stereo not shown) [I.48-72],90

# Tested on: Lolium rigidum
# Experiment: as above
# Format: in vivo
# Conditions: application rate 80 g/ha, scored visually after about 3 weeks vs untreated controls
# Procedure, shortened: as §4
row,Compound,Lolium rigidum (Efficacy in %) [%]
1,Cn1c(C(F)(F)F)cc(=O)n(-c2cc(SCC(C)(C)C(=O)OCC3CCOC3)c(Cl)cc2F)c1=O (stereo not shown) [I.48-72],80

# Tested on: Digitaria sanguinalis
# Experiment: as above
# Format: in vivo
# Conditions: application rate 80 g/ha
# Procedure, shortened: as §4
row,Compound,Digitaria sanguinalis (Efficacy in %) [%]
1,Cn1c(C(F)(F)F)cc(=O)n(-c2cc(SCC(C)(C)C(=O)OCC3CCOC3)c(Cl)cc2F)c1=O (stereo not shown) [I.48-72],100

# Tested on: Stellaria media
# Experiment: as above
# Format: in vivo
# Conditions: application rate 80 g/ha, scored visually after about 3 weeks vs untreated controls
# Procedure, shortened: as §4
row,Compound,Stellaria media (Efficacy in %) [%]
1,Cn1c(C(F)(F)F)cc(=O)n(-c2cc(SCC(C)(C)C(=O)OCC3CCOC3)c(Cl)cc2F)c1=O (stereo not shown) [I.48-72],100

# Tested on: Pharbitis purpurea
# Experiment: as above
# Format: in vivo
# Conditions: application rate 80 g/ha
# Procedure, shortened: as §4
row,Compound,Pharbitis purpurea (Efficacy in %) [%]
1,Cn1c(C(F)(F)F)cc(=O)n(-c2cc(SCC(C)(C)C(=O)OCC3CCOC3)c(Cl)cc2F)c1=O (stereo not shown) [I.48-72],100
